Experimental data reported in patent publication US11439643B2, “Combination therapy using belinostat and pralatrexate to treat lymphoma” (Spectrum Pharmaceuticals, Inc., priority 2015, dated 2022).
Where two headings read alike, the source gives them in different places.

How the values were obtained:
Format in all cases: cell-based
[1] = system: Jeko-1 [Mantle Cell Lymphoma (B cell origin)]; assay: CellTiter-Glo cell viability / growth inhibition, Jeko-1; details: Homo sapiens; Jeko-1, belinostat plus pralatrexate concurrently, 72 h; read-out: IC50 in combination studies
Procedure: (§1) The growth inhibitory effects of belinostat alone, and in combination with pralatrexate, was assayed in several different human lymphoma cell lines in vitro.
(§2) Serum used in this study is un-dialyzed fetal bovine serum (Atlanta Biologics) and contains<[…] of 5-methyltetrahydrofolate.
(§3) The cultures are maintained in T75-cm^2 culture flasks at 37° C., 95% air humidity, and 5% CO2. The cells are subcultured at 80-90% confluence and are seeded into 96-well plates at 1.5×10^4 cells per well for each experiment.
(§4) Cell Treatment: Treatment is initiated 24 hours after plating. […] Growth Inhibition Assay: Cell viability is determined using the CellTiter-Glo® Luminescent Cell Viability assay from Promega. The CellTiter-Glo® assay is a homogeneous method to determine and compare cell viability using ATP utilization. Following treatment, 100 μl of growth medium is removed and cells are incubated with 100 μl CellTiter-Glo® reagent for two minutes with nutation and incubated at room temperature for ten additional minutes to stabilize the luminescence signal; luminescence is then measured using a Biotek luminometer with values reported in (Lum).
(§5) Data analysis: Cell viability in each assay is expressed as a percentage versus untreated control cells.

[2] = system: KARPAS-299 [Human Non-Hodgkin's Ki-positive Large Cell Lymphoma (T cell origin)]; assay: CellTiter-Glo cell viability / growth inhibition, KARPAS-299
Procedure: as §1, §2, §3, §4, §5

[3] = system: HUT-78 [Cutaneous T lymphocyte (T cell origin)]; assay: CellTiter-Glo cell viability / growth inhibition, HUT-78; details: Homo sapiens, HuT78
Procedure: as §1, §2, §3, §4, §5

[4] = system: panel of lymphoma cell lines; assay: CellTiter-Glo cell viability, panel of lymphoma cell lines; details: Homo sapiens; single agent, 72 hr exposure, range over cell lines; read-out: Single agent IC50 values across a panel of lymphoma cell lines
Procedure: as §1, §2, §3
Cell Treatment: Treatment is initiated 24 hours after plating.
Growth Inhibition Assay: Cell viability is determined using the CellTiter-Glo® Luminescent Cell Viability assay from Promega. The CellTiter-Glo® assay is a homogeneous method to determine and compare cell viability using ATP utilization. Following treatment, 100 μl of growth medium is removed and cells are incubated with 100 μl CellTiter-Glo® reagent for two minutes with nutation and incubated at room temperature for ten additional minutes to stabilize the luminescence signal; luminescence is then measured using a Biotek luminometer with values reported in (Lum).
as §5

[5] = KARPAS-299, belinostat plus pralatrexate concurrently, 72 h, read-out: IC50 in combination studies
[6] = HUT-78, belinostat plus pralatrexate concurrently, 72 h, read-out: IC50 in combination studies
[7] = HUT-78, single agent, 72 hr exposure, read-out: Single Agent IC50

**Q.** With C#CCC(Cc1cnc2nc(N)nc(N)c2n1)c1ccc(C(=O)N[C@@H](CCC(=O)O)C(=O)O)cc1 (mixture of isomers) [Pralatrexate, (2S)-2-[[4-[(1RS)-1-[(2,4-diaminopteridin-6-yl)methyl]but-3ynyl]benzoyl]amino]pentanedioic acid] as the compound, how does the IC50 [1] read?
**A.** 2.1 nM

**Q.** And the IC50 [2, 5]?
**A.** 3.6 nM

**Q.** And the IC50 ([2]; KARPAS-299, single agent, 72 hr exposure, read-out: Single Agent IC50)?
**A.** 24 nM

**Q.** And the IC50 [3, 6]?
**A.** 4.1 nM

**Q.** What about the IC50 [3, 7] of the same compound?
**A.** 2.8 nM

**Q.** And the IC50 [4]?
**A.** 2 to 25 nM

**Q.** With O=C(/C=C/c1cccc(S(=O)(=O)Nc2ccccc2)c1)NO [Belinostat, (2E)-N-hydroxy-3-[3-(phenylsulfamoyl)phenyl]prop-2-enamide] as the compound, how does the IC50 [1] read?
**A.** 87 nM

**Q.** What about the IC50 [2, 5] of the same compound?
**A.** 127 nM

**Q.** And the IC50 [3, 6]?
**A.** 170 nM

**Q.** And the IC50 [3, 7]?
**A.** 97 nM

**Q.** What about the IC50 [4] of the same compound?
**A.** 90 to 210 nM
